According to ChEMBL document CHEMBL1148698, “Chemotherapy of leishmaniasis. Part VII: synthesis and bioevaluation of substituted terpenyl pyrimidines” (2007):
Active and inactive are the calls of the source. The calls are words filed in the database; no cut-off is given here.

Test system: Leishmania donovani
Assay: Antileishmanial activity against Leishmania donovani HOM/IN/80DD8 in hamster at 50 mg/kg, ip after 7 days
Conditions: for inhibition in vivo at 50 mg/kg: HOM/IN/80DD8, ip, 168 h

| Compound | inhibition in vivo at 50 mg/kg [%] | Activity |
| --- | --- | --- |
| CC1=C(/C=C/c2cc(Nc3ccccc3)nc(N)n2)C(C)(C)CCC1 | 31 |  |
| CC1=C(/C=C/c2cc(Nc3ccc(F)cc3)nc(N)n2)C(C)(C)CCC1 |  | inactive |
| CC1=C(/C=C/c2cc(NN)nc(N)n2)C(C)(C)CCC1 |  | inactive |
| CC1=C(/C=C/c2cc(N3CCCCC3)nc(N)n2)C(C)(C)CCC1 |  | inactive |
| COc1ccc(Nc2cc(/C=C/C3=C(C)CCCC3(C)C)nc(N)n2)cc1 |  | inactive |
| CC1=C(/C=C/c2cc(Nc3cccc(F)c3)nc(N)n2)C(C)(C)CCC1 |  | inactive |
| CCN(c1ccccc1)c1cc(/C=C/C2=C(C)CCCC2(C)C)nc(N)n1 | 40 |  |
| CC1=C(/C=C/c2cc(NC3CCCCC3)nc(N)n2)C(C)(C)CCC1 |  | inactive |
| CC1=C(/C=C/c2cc(N3CCOCC3)nc(N)n2)C(C)(C)CCC1 |  | inactive |
| CC1=C(/C=C/c2cc(NCc3ccccc3)nc(N)n2)C(C)(C)CCC1 |  | inactive |
| CC1=C(/C=C/c2cc(Nc3ccc(Cl)cc3)nc(N)n2)C(C)(C)CCC1 |  | inactive |
| CC1=C(/C=C/c2cc(N3CCN(c4ccccc4)CC3)nc(N)n2)C(C)(C)CCC1 |  | inactive |
| CSc1cc(/C=C/C2=C(C)CCCC2(C)C)nc(N)n1 | 66 |  |
| CC1=C(/C=C/c2cc(N3CCNCC3)nc(N)n2)C(C)(C)CCC1 |  | inactive |
